We go through four compounds from patent US9839618B2, “Compositions and methods relating to proliferative diseases” (The Penn State Research Foundation, priority 2010, dated 2017).

Assay [1] relates to FF2441 normal human fibroblasts. The assay can be described thus: MTS assay viability IC50, normal fibroblasts. Format: cell-based. As to the method: The efficacy of leelamine to kill other cancer types is measured and the IC50 for cell lines derived from carcinomas of breast, lung, prostate, connective tissue, pancreas and colon determined. The MTS assay as described in Sharma, A. et al., Clin Cancer Res, 2009, 15:1674-85; and Madhunapantula, S. V. et al., Mol Cancer Ther, 2008, 7:1297-308 is used to establish the IC50 at 24, 48 and 72 hours of leelamine treatment for normal human epidermal melanocytes (FOM103), normal skin fibroblast cells (FF2441), normal skin keratinocytes (HFK) and compared to melanocytic lesion cells from the radial-, vertical- and metastatic melanoma stages. 5×10^3 cells per well in 100 μL of media are plated and grown in a 96-well plate for 48 to 72 hours and treated with either DMSO vehicle control or 0.62 to 40 μmol/L of leelamine for 24, 48 or 72 hours. IC50 values for each compound in μmol/L for respective cell lines are measured from three independent experiments using GraphPad Prism version 4.01 (GraphPad Software, La Jolla, Calif.). Leelamine is found to be not toxic to normal cells and effective to kill melanoma cells as well as non-melanoma cancer cells as shown in Table 1 in FIG. 20. Leelamine is 3- to 4-fold more specific at killing metastatic melanoma than normal cells, supporting cancer therapeutic utility at concentrations<2 μmol/L.
5×10^3 cells per well in 100 μL of media are plated and grown in a 96-well plate for 48 to 72 hours and treated with either DMSO vehicle control or 0.62 to 40 μmol/L of leelamine for 24, 48 or 72 hours. IC50 values for each compound in μmol/L for respective cell lines are measured from three independent experiments using GraphPad Prism version 4.01 (GraphPad Software, La Jolla, Calif.). […]
(§1) Dehydroabietylamine, its N-substituted derivatives and the corresponding dihydroabietylamine and its N-substituted derivatives are tested for their capability to inhibit cell growth of cancer cell lines, including melanoma (UACC 903, 1205Lu), breast (MCF-7), fibrosarcoma (HT-1080), colon (Caco-2), and prostate (PC-3) cancer cell lines. Viability and IC50 of normal human fibroblasts and cell lines from melanoma and other malignancies following treatment with all the agents are measured using the MTS assay (Promega, Madison, Wis.). Human fibroblast FF2441 cells, metastatic melanoma cell lines 1205 Lu and UACC 903 as well as cancer cell lines representing sarcoma (HT-1080), prostate (PC-3, LNCaP), breast (MCF-7) and lung (A-549) are maintained in DMEM (Invitrogen, Carlsbad, Calif.) supplemented with 10% FBS (Hyclone, Logan, Utah) in a 5% CO2 atmosphere, humidified 37° C. incubator. 5×10^3 cells per well in 100 μL of media are plated and grown in a 96-well plate for 48 to 72 h and treated with either DMSO vehicle control or 0.62 to 40 μmol/L for 24, 48 or 72 h. IC50 values for each compound in […] for respective cell lines are measured from three independent experiments using GraphPad Prism version 4.01 (GraphPad Software, La Jolla, Calif.). FIG. 52 is a graph showing IC50 values for leelamine and compounds 4a, 4b and 5a in treated fibroblasts (FF2441) compared to melanoma cells. Selectivity ratio here is defined as ratio of activity against fibroblasts compared to activity against melanoma cells. Leelamine is relatively selective with a ratio of >6 and >4 for UACC903 and 1205Lu melanoma cells. The selectivity ratio of compound 4a is ˜4 and ˜3 for UACC903 and 1205Lu and for compound 4b is ˜4 for both cell lines. The selectivity ratio of compound 5a is ˜4 for UACC903 and >2 for 1205Lu cells.

Assay [2] deals with melanoma cell lines (UACC 903, 1205Lu). The assay can be described thus: MTS assay, melanoma cell lines (cell line not given). Format: cell-based, human. Conditions: UACC 903 and 1205 Lu. The method, then: The mechanistic basis of leelamine's activity to inhibit melanoma cell growth is determined by examining the effect of leelamine on 1) cell viability using the MTS assay; 2) proliferation using a BrdU incorporation assay; 3) apoptosis using an assay for caspase-3/7 activity; and 4) cell cycle analysis. The MTS assay as described in Sharma, A. et al., Clin Cancer Res, 2009, 15:1674-85; and Madhunapantula, S. V. et al., Mol Cancer Ther, 2008, 7:1297-308 is used to assay cell viability. Rates of proliferation and apoptosis are measured by seeding 5×10^3 cells in 96-well plates, followed by treatment with 0.62 to 10 μmol/L of leelamine for 24 hours. Proliferating and apoptotic cells are quantified using a colorimetric cell proliferation ELISA BrdU kit (Roche diagnostics, Indianapolis, Ind.) or Apo-ONE Homogenous caspase-3/7 assay kit (Promega, Madison, Wis.), respectively, as described in Sharma, A. et al., Clin Cancer Res, 2009, 15:1674-85; and Madhunapantula, S. V. et al., Mol Cancer Ther, 2008, 7:1297-308.
as §1

The mark [3] stands for this setting: Homo sapiens, FF2441, Table 5, read-out: IC50 Fibroblast FF2441.

Read-outs that look alike come from different tables or passages of the source. A value given as a limit tells only on which side of the number the result lay.

Turning to `CC(C)c1ccc2c(c1)CCC1[C@](C)(CN)CCC[C@]21C` (stereo partly drawn) [Leelamine, [(1R,4aS)-1,4a-dimethyl-7-(propan-2-yl)-1,2,3,4,4a,9,10,10a-octahydrophenanthren-1-yl]methanamine], the IC50 in assay [1] (setting [3]) was 8.91 ± 0.57 µM. In addition, the “anti-cancer activity / viability of melanoma cell lines, in words” value in assay [2] was “effectively inhibits the viability”.

In the case of `CC(C)C1=CC2=CCC3[C@](C)(CCC[C@@]3(C)C(=O)O)C2CC1` (stereo partly drawn) [Abietic acid, (1R,4aR)-1,4a-dimethyl-7-(propan-2-yl)-1,2,3,4,4a,4b,5,6,10,10a-decahydrophenanthrene-1-carboxylic acid, reference compound], the IC50 is above 100 µM in assay [1] (Homo sapiens, FF2441, Table 4, read-out: IC50 Normal fibroblast FF2441); above 100 µM in assay [1] (setting [3]); above 100 µM in assay [1] (Table 6, read-out: IC50 Normal fibroblast FF2441). In assay [2], the “anti-cancer activity / viability of melanoma cell lines, in words” value is “no anti-cancer activity”.

On to `CC(C)c1ccc2c(c1)CCC1[C@](C)(CNC(=O)C(F)(F)F)CCC[C@]21C` (stereo partly drawn) [Compound 5a, N-{[(1R,4aS)-1,4a-dimethyl-7-(propan-2-yl)-1,2,3,4,4a,9,10,10a-octahydrophenanthren-1-yl]methyl}-2,2,2-trifluoroacetamide], for which the IC50 in assay [1] (setting [3]) came to 5.17 ± 0.02 µM.

As for `CC(C)C1=CC2=CCC3[C@](C)(CN)CCC[C@]3(C)C2CC1` (stereo partly drawn) [Compound 4a, {[(1R,4aR)-1,4a-dimethyl-7-(propan-2-yl)-1,2,3,4,4a,4b,5,6,10,10a-decahydrophenanthren-1-yl]methyl}amine], the IC50 in assay [1] (setting [3]) was determined as 8.33 ± 0.43 µM.
